Like-named read-outs stand apart in the source and are kept apart here.
Columns and labels:
[1] = Hydrophobicity index based on retention time in reverse phase HPLC; assay type: physicochemical; set-up: retention time (hydrophobicity index): dose or concentration left out as unconfirmed; conditions: for retention time (hydrophobicity index): HPLC reverse phase, microBondapack C18, 1 ml/min of ethanol in H2O
estrogen receptors = target: T1, estrogen receptors (Homo sapiens, UniProt P03372); assay: Inhibition of the fixation of tritiated estradiol on cytosols of MCF7 mammary human tumor; assay type: binding; conditions: 25° C, MCF7 cytosol
T1 construct: cytosols of MCF7 mammary human tumor rich in estrogen receptors; endogenous in cells; host or cells: MCF7 human mammary tumor, cytosol
T1 sequence (P03372 1-595): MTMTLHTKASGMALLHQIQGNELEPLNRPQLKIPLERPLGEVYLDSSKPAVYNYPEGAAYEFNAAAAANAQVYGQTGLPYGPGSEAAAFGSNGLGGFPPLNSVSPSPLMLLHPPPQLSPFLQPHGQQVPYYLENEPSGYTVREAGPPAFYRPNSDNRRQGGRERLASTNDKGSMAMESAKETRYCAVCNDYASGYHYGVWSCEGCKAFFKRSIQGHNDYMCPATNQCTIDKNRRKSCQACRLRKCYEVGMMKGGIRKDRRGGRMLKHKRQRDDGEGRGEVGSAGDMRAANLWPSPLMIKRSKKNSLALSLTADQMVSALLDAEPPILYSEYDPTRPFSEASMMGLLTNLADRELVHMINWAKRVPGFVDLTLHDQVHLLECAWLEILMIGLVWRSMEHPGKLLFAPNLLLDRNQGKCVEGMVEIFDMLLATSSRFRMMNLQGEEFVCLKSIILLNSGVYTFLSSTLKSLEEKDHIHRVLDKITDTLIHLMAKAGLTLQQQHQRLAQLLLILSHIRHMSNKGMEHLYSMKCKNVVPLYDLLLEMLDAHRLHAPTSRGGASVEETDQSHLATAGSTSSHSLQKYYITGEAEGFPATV

[2] = rat, in vivo, 1440 min; cited from earlier work
[3] = Acute toxicity in mice grafted with MXT mammary tumors; assay type: in vivo, female BDF1 mice; conditions: three i.v. injections of 100 μCi at fortnightly intervals, period of 60 days
Description: (§1) Twenty nine female BDF1 mice were grafted with MXT syngenetic mammary tumors implanted subcutaneously. Fourteen mice received three intravenous injections of 100 μCi of 11beta-chloromethyl-17-iodovinyl- ^123 I of E isomerism at fortnightly intervals.
(§2) The 100 μCi of labeled hormone were injected diluted in 200 μl of solution containing 9 g/l NaCl, 5% ethanol and 1% of Tween 80. The fifteen control mice received 200 μl of the NaCl/ethanol/Tween solution on the same dates.

[4] = test system: MXT syngenetic mammary tumors; assay: Targeted radiotherapy of female BDF1 mice grafted with MXT syngenetic mammary tumors; assay type: in vivo
Description: as §1, §2

estrogen receptor = target: T2, estrogen receptor (Bos taurus, UniProt P49884); assay: Tests of binding of calf uterus cytosol to the estrogen receptor
T2 sequence (P49884 1-596): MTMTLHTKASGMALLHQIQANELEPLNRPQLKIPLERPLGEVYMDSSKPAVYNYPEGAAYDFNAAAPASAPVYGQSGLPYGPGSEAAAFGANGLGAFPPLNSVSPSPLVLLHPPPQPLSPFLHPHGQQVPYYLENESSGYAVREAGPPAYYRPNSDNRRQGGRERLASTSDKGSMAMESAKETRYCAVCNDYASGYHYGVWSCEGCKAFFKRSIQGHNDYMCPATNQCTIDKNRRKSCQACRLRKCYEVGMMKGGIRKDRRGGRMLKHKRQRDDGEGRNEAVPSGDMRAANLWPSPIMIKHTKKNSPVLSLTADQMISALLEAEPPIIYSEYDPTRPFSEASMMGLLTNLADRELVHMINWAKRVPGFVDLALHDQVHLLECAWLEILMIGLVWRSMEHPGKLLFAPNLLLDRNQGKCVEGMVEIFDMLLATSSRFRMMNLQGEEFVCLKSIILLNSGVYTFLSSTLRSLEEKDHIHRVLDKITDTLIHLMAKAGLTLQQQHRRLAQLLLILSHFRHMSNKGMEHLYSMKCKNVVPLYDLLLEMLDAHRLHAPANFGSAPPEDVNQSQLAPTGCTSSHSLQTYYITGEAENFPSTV
Excerpt: The nonspecific binding to the transport proteins is diminished by virtue of the presence of the 11-beta and 17-alpha groups.

[5] = Stability of the radioiodinated product in column eluate (60% ethanol) at -20° C; assay type: physicochemical
Description: The method is the same as for the labelling of (14').
The starting material is the derivative (15').
The HPLC separation conditions are different: the mobile phase is 60% ethanol in water, the flow rate is 1 ml/min, the final product is collected at 12 minutes. The labeled product is kept as such in the column eluate (60% ethanol). In these conditions, it is stable for at least 12 days at -20° C. (deiodination less than 2%).

[6] = Biodistribution of 125I-labeled Z isomer (16') in ovarectomized BDF1 mice; assay type: in vivo; conditions: for tissue uptake at 2 h / tissue uptake at 24 h: mouse, 1 uCi, 1 μCi 125I, ± S.D.
Description: The biodistribution of the Z isomer (16') in ovarectomized BDF mice is highly favorable.
8 ovarectomized BDF1 mice were injected with 1 μCi of 11beta-chloromethyl-17alpha-(2-iodovinyl)estradiol-(^125 I). 4 mice were sacrificed 2 hours after the estradiolinjection and 4 24 hours after the injection.

[7] = blood, read-out: % injected dose/g of tissue, blood
[8] = fat, read-out: % injected dose/g of tissue, fat
[9] = kidneys, read-out: % injected dose/g of tissue, kidneys
[10] = liver, read-out: % injected dose/g of tissue, liver
[11] = muscle, read-out: % injected dose/g of tissue, muscle
[12] = spleen, read-out: % injected dose/g of tissue, spleen
[13] = uterus, read-out: % injected dose/g of tissue, uterus

Structure (SMILES): C[C@]12C[C@H](CCl)[C@@H]3c4ccc(O)cc4CC[C@H]3[C@@H]1CC[C@@]2(O)/C=C/I [14', (E)-11-chloromethyl-3,17β-dihydroxy-17α-(2iodovinyl)-1,3,5(10)-estratriene]
- retention time (hydrophobicity index) [1]: 14.3 min

Structure (SMILES): C[C@]12C[C@H](CCl)[C@@H]3c4ccc(O)cc4CC[C@H]3[C@@H]1CC[C@@]2(O)C=CI [11beta-chloromethyl-17-iodovinylestradiol]
- affinity (in words) (estrogen receptors): an affinity comparable with that of 11beta-chloromethylestradiol and clearly superior to that of estradiol
- relative binding affinity (estrogen receptors; versus estradiol): greater than 1,000

Structure (SMILES): CCC1C[C@@]2(C)[C@@H](CCC2(O)C=C[125I])[C@@H]2CCc3cc(O)ccc3[C@@H]12 (stereo partly shown) [I-125 17-iodovinyl-11-ethylestradiol, 17-iodovinyl-11-ethylestradiol]
- uterus/blood ratio [2]: 40.4
- uterus/liver ratio [2]: 3.89
- uterus/lung ratio [2]: 52.8

Structure (SMILES): C[C@]12C[C@H](CCl)[C@@H]3c4ccc(O)cc4CC[C@H]3[C@@H]1CC[C@@]2(O)/C=C/[123I] [11beta-chloromethyl-17-iodovinyl- ^123 I of E isomerism, 11Beta-Chloromethyl-17-Iodovinylestradiol-^123 I]
- acute toxicity [3]: No acute toxicity was detected
- tumor growth compared with the control group, % of the average tumor growth ([4]; day 18, three i.v. injections of 100 μCi at fortnightly intervals): lower than 45%
- tumor growth compared with the control group (in words) ([4]; three i.v. injections of 100 μCi at fortnightly intervals): significant slowing down of the tumor growth
- survival ([4]; versus control group): better survival

Structure (SMILES): C[C@]12C[C@H](CCl)[C@@H]3c4ccc(O)cc4CC[C@H]3[C@@H]1CC[C@@]2(O)/C=C\I [16', (Z)-11beta-chloromethyl-3,17beta-dihydroxy17alpha-(2-iodovinyl)-1,3,5(10)-estratriene]
- binding to the estrogen receptor (in words) (estrogen receptor; 25° C, 1 h, final 5 mM, versus tritiated estradiol): binding of the same order as the tritiated estradiol
- nonspecific binding (estrogen receptor; 25° C, 1 h, saturating dose (final 5 mM), calf uterus cytosol): 23%
- nonspecific binding to the transport proteins (in words) (estrogen receptor; versus tritiated estradiol): diminished
- sensitivity level (in words) (estrogen receptor; versus tritiated estradiol, by virtue of the higher specific activity): higher sensitivity level
- degraded at 288 h ([5]; 60% ethanol): < 2%
- stable for at least (storage stability of labeled product) ([5]; column eluate (60% ethanol), -20° C): at least 12 days
- retention time (hydrophobicity index) [1]: 12.1 min
- hydrophobicity, Z isomer versus E isomer (in words) ([1]; comparison of Z with E isomer): less hydrophobic than the E isomer
- uterus/blood concentration ratio ([6]; 2 h): 6.16
- uterus/fat concentration ratio ([6]; 2 h): 2.90
- uterus/liver concentration ratio ([6]; 2 h): 1.30
- uterus/muscle concentration ratio ([6]; 2 h): 7.48
- uterus/blood concentration ratio ([6]; 24 h): 65.80
- uterus/fat concentration ratio ([6]; 24 h): 35.42
- uterus/liver concentration ratio ([6]; 24 h): 10.12
- uterus/muscle concentration ratio ([6]; 24 h): 92.10
- tissue uptake at 2 h [6, 7]: 1.08 ± 0.24 %ID/g
- tissue uptake at 24 h [6, 7]: 0.14 ± 0.02 %ID/g
- tissue uptake at 2 h [6, 8]: 2.29 ± 0.25 %ID/g
- tissue uptake at 24 h [6, 8]: 0.26 ± 0.09 %ID/g
- tissue uptake at 2 h [6, 9]: 1.84 ± 0.27 %ID/g
- tissue uptake at 24 h [6, 9]: 0.2 ± 0.02 %ID/g
- tissue uptake at 2 h [6, 10]: 5.1 ± 0.72 %ID/g
- tissue uptake at 24 h [6, 10]: 0.91 ± 0.05 %ID/g
- tissue uptake at 2 h [6, 11]: 0.89 ± 0.07 %ID/g
- tissue uptake at 24 h [6, 11]: 0.1 %ID/g
- tissue uptake at 2 h [6, 12]: 0.97 ± 0.18 %ID/g
- tissue uptake at 24 h [6, 12]: 0.12 ± 0.01 %ID/g
- tissue uptake at 2 h [6, 13]: 6.66 ± 0.91 %ID/g
- tissue uptake at 24 h [6, 13]: 9.21 ± 1.44 %ID/g

From patent publication US5002753A, “Specific ligands for estrogen and progestagen steroid hormone receptors, application and intermediate synthesis products” (IRE-Celltarg S.A., priority 1988, dated 1991)
